Test results reported in ChEMBL document CHEMBL1201862, “PubChem BioAssay data set” (2004).
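Dose response: 5 concentrations. Exposure: 48 h. Format: 96-well plates. Endpoint: linear interpolation; highest concentration if not reached. Here, GI50 denotes the concentration required for 50% inhibition of growth.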 Active and inactive are the calls of the source. Cut-off read from the data, not from the text of the source: active = GI50 up to about 1.1 µM and inactive = higher.

What was measured:
Test in all cases: NCI tumour cell line growth inhibition, 48 h
[1] = test system: A498
[2] = test system: A549
[3] = test system: HCC 2998
[4] = test system: HCT-15
[5] = test system: HOP-62
[6] = test system: HT-29
[7] = test system: K562
[8] = test system: LOX IMVI
[9] = test system: Malme-3M
[10] = test system: NCI-H226
[11] = test system: OVCAR-5
[12] = test system: OVCAR-8
[13] = test system: SF-268
[14] = test system: SF-539
[15] = test system: SK-MEL-28
[16] = test system: SK-MEL-2
[17] = test system: SK-MEL-5
[18] = test system: SK-OV-3
[19] = test system: SNB-78
[20] = test system: TK-10

**Q.** Which results are given for `O=C1C=C(Br)C(=O)C(Br)=C1`?
**A.** GI50 [1]: > 100 µM (inactive); GI50 [2]: > 100 µM (inactive); GI50 [3]: 74 µM (inactive); GI50 [4]: > 79.8 µM; GI50 [5]: > 100 µM (inactive); GI50 [6]: > 100 µM (inactive); GI50 [7]: 33.3 µM (inactive); GI50 [8]: > 31.6 µM (inactive); GI50 [9]: > 100 µM (inactive); GI50 [10]: > 100 µM (inactive); GI50 [11]: > 100 µM (inactive); GI50 [12]: > 100 µM (inactive); GI50 [13]: > 100 µM (inactive); GI50 [14]: > 100 µM (inactive); GI50 [15]: > 100 µM (inactive); GI50 [16]: > 100 µM (inactive); GI50 [17]: > 100 µM (inactive); GI50 [18]: > 100 µM (inactive); GI50 [19]: > 100 µM (inactive); GI50 [20]: > 100 µM (inactive)

**Q.** What does the source list for `CN1c2c(O)nc(N)nc2NCC1CCNc1ccc(C(=O)NC(CCC(=O)O)C(=O)O)cc1` (stereo not drawn)?
**A.** GI50 [1]: 948 µM (inactive); GI50 [2]: 242 µM (inactive); GI50 [3]: 993 µM (inactive); GI50 [4]: 1430 µM; GI50 [5]: 467 µM (inactive); GI50 [6]: 19.6 µM (inactive); GI50 [7]: 4.13 µM (inactive); GI50 [8]: 4.06 µM (inactive); GI50 [9]: 1410 µM (inactive); GI50 [10]: 807 µM (inactive); GI50 [11]: 1520 µM (inactive); GI50 [12]: 1160 µM (inactive); GI50 [13]: 1110 µM (inactive); GI50 [14]: 132 µM (inactive); GI50 [15]: 695 µM (inactive); GI50 [16]: 1470 µM (inactive); GI50 [17]: 1120 µM (inactive); GI50 [18]: 678 µM (inactive); GI50 [19]: 1130 µM (inactive); GI50 [20]: 1030 µM (inactive)

**Q.** With `COc1cccc(OC)c1/C=N\N1C(=O)c2ccccc2C1=O` as the compound, how does the GI50 [1] read?
**A.** > 100 µM (inactive)

**Q.** What about the GI50 [2] of the same compound?
**A.** > 100 µM (inactive)

**Q.** What about the GI50 [3] of the same compound?
**A.** 29.5 µM (inactive)

**Q.** What about the GI50 [4] of the same compound?
**A.** 32.1 µM

**Q.** What about the GI50 [5] of the same compound?
**A.** > 100 µM (inactive)

**Q.** And the GI50 [6]?
**A.** 35.5 µM (inactive)

**Q.** And the GI50 [7]?
**A.** 39.1 µM (inactive)

**Q.** What about the GI50 [8] of the same compound?
**A.** 58.5 µM (inactive)

**Q.** And the GI50 [9]?
**A.** 60 µM (inactive)

**Q.** And the GI50 [10]?
**A.** > 100 µM (inactive)

**Q.** And the GI50 [11]?
**A.** > 100 µM (inactive)

**Q.** What about the GI50 [12] of the same compound?
**A.** 29.6 µM (inactive)

**Q.** What about the GI50 [13] of the same compound?
**A.** 37.8 µM (inactive)

**Q.** And the GI50 [14]?
**A.** 24.3 µM (inactive)

**Q.** What about the GI50 [15] of the same compound?
**A.** 77.6 µM (inactive)

**Q.** And the GI50 [16]?
**A.** 60.8 µM (inactive)

**Q.** And the GI50 [17]?
**A.** 52.1 µM (inactive)

**Q.** What about the GI50 [19] of the same compound?
**A.** 59.4 µM (inactive)

**Q.** What about the GI50 [20] of the same compound?
**A.** 57.7 µM (inactive)

**Q.** Which GI50 [1] does the source give for `COc1ccc(/C(=N/NC(=O)NN)C(c2ccc(OC)cc2)C2(O)CNc3c(Cl)cc(Cl)cc32)cc1` (stereo not drawn) here?
**A.** > 100 µM (inactive)

**Q.** And the GI50 [2]?
**A.** > 100 µM (inactive)

**Q.** What about the GI50 [3] of the same compound?
**A.** > 100 µM (inactive)

**Q.** And the GI50 [4]?
**A.** > 100 µM

**Q.** What about the GI50 [5] of the same compound?
**A.** > 100 µM (inactive)

**Q.** What about the GI50 [6] of the same compound?
**A.** 89.9 µM (inactive)

**Q.** What about the GI50 [7] of the same compound?
**A.** > 100 µM (inactive)

**Q.** What about the GI50 [8] of the same compound?
**A.** > 100 µM (inactive)

**Q.** What about the GI50 [9] of the same compound?
**A.** > 100 µM (inactive)

**Q.** What about the GI50 [10] of the same compound?
**A.** > 100 µM (inactive)

**Q.** And the GI50 [11]?
**A.** > 100 µM (inactive)

**Q.** And the GI50 [12]?
**A.** > 100 µM (inactive)

**Q.** What about the GI50 [13] of the same compound?
**A.** > 100 µM (inactive)

**Q.** And the GI50 [14]?
**A.** > 100 µM (inactive)

**Q.** What about the GI50 [15] of the same compound?
**A.** > 100 µM (inactive)

**Q.** And the GI50 [16]?
**A.** > 100 µM (inactive)

**Q.** And the GI50 [17]?
**A.** > 100 µM (inactive)

**Q.** And the GI50 [18]?
**A.** 81.8 µM (inactive)

**Q.** What about the GI50 [19] of the same compound?
**A.** > 100 µM (inactive)

**Q.** What about the GI50 [20] of the same compound?
**A.** > 100 µM (inactive)

**Q.** With `CN1S(=O)(=O)N(C)P12(N=P(CP(=NP13(N(C)S(=O)(=O)N1C)N(C)S(=O)(=O)N3C)(c1ccccc1)c1ccccc1)(c1ccccc1)c1ccccc1)N(C)S(=O)(=O)N2C` as the compound, how does the GI50 [1] read?
**A.** > 100 µM (inactive)

**Q.** And the GI50 [2]?
**A.** > 100 µM (inactive)

**Q.** What about the GI50 [3] of the same compound?
**A.** > 100 µM (inactive)

**Q.** What about the GI50 [4] of the same compound?
**A.** > 100 µM

**Q.** What about the GI50 [5] of the same compound?
**A.** > 100 µM (inactive)

**Q.** What about the GI50 [6] of the same compound?
**A.** > 100 µM (inactive)

**Q.** And the GI50 [7]?
**A.** > 100 µM (inactive)

**Q.** What about the GI50 [8] of the same compound?
**A.** > 100 µM (inactive)

**Q.** And the GI50 [9]?
**A.** > 100 µM (inactive)

**Q.** And the GI50 [10]?
**A.** > 100 µM (inactive)

**Q.** What about the GI50 [11] of the same compound?
**A.** > 100 µM (inactive)

**Q.** What about the GI50 [12] of the same compound?
**A.** > 100 µM (inactive)

**Q.** What about the GI50 [13] of the same compound?
**A.** > 100 µM (inactive)

**Q.** And the GI50 [14]?
**A.** > 100 µM (inactive)

**Q.** And the GI50 [15]?
**A.** > 100 µM (inactive)

**Q.** And the GI50 [16]?
**A.** > 100 µM (inactive)

**Q.** What about the GI50 [17] of the same compound?
**A.** > 100 µM (inactive)

**Q.** What about the GI50 [18] of the same compound?
**A.** > 100 µM (inactive)

**Q.** What about the GI50 [19] of the same compound?
**A.** > 100 µM (inactive)

**Q.** And the GI50 [20]?
**A.** > 100 µM (inactive)

**Q.** Which GI50 [1] does the source give for `CN(C)c1ccc(/C=c2\sc3nnc(-c4cccnc4)n3c2=O)cc1` here?
**A.** > 100 µM (inactive)

**Q.** What about the GI50 [2] of the same compound?
**A.** > 100 µM (inactive)

**Q.** And the GI50 [3]?
**A.** > 100 µM (inactive)

**Q.** And the GI50 [4]?
**A.** > 100 µM

**Q.** And the GI50 [5]?
**A.** > 100 µM (inactive)

**Q.** And the GI50 [7]?
**A.** > 100 µM (inactive)

**Q.** What about the GI50 [8] of the same compound?
**A.** > 100 µM (inactive)

**Q.** What about the GI50 [9] of the same compound?
**A.** > 100 µM (inactive)

**Q.** And the GI50 [10]?
**A.** > 100 µM (inactive)

**Q.** And the GI50 [11]?
**A.** > 100 µM (inactive)

**Q.** And the GI50 [12]?
**A.** > 100 µM (inactive)

**Q.** What about the GI50 [13] of the same compound?
**A.** > 100 µM (inactive)

**Q.** And the GI50 [14]?
**A.** > 100 µM (inactive)

**Q.** And the GI50 [15]?
**A.** > 100 µM (inactive)

**Q.** What about the GI50 [16] of the same compound?
**A.** > 100 µM (inactive)

**Q.** And the GI50 [17]?
**A.** > 100 µM (inactive)

**Q.** What about the GI50 [18] of the same compound?
**A.** > 100 µM (inactive)

**Q.** What about the GI50 [19] of the same compound?
**A.** > 100 µM (inactive)

**Q.** What about the GI50 [20] of the same compound?
**A.** > 100 µM (inactive)

**Q.** `CCCCCCCCCCCCCCCCCC(=O)NCC(COP(=O)(O)O)OCC` (stereo not drawn) was tested. Which GI50 [1] did it give?
**A.** 24.3 µM (inactive)

**Q.** What about the GI50 [2] of the same compound?
**A.** 31.1 µM (inactive)

**Q.** What about the GI50 [3] of the same compound?
**A.** > 100 µM (inactive)

**Q.** What about the GI50 [5] of the same compound?
**A.** 22 µM (inactive)

**Q.** What about the GI50 [6] of the same compound?
**A.** 68.7 µM (inactive)

**Q.** And the GI50 [7]?
**A.** > 100 µM (inactive)

**Q.** And the GI50 [9]?
**A.** > 100 µM (inactive)

**Q.** What about the GI50 [10] of the same compound?
**A.** 27.7 µM (inactive)

**Q.** And the GI50 [12]?
**A.** 36.6 µM (inactive)

**Q.** And the GI50 [13]?
**A.** 22.3 µM (inactive)

**Q.** And the GI50 [14]?
**A.** 43.6 µM (inactive)

**Q.** What about the GI50 [15] of the same compound?
**A.** > 100 µM (inactive)

**Q.** And the GI50 [16]?
**A.** 38.1 µM (inactive)

**Q.** And the GI50 [17]?
**A.** > 100 µM (inactive)

**Q.** And the GI50 [18]?
**A.** 34.9 µM (inactive)

**Q.** And the GI50 [19]?
**A.** 22.5 µM (inactive)

**Q.** What about the GI50 [20] of the same compound?
**A.** 49.2 µM (inactive)

**Q.** What does the source list for `COc1ccc(/C=C/C(=O)c2sc(Nc3ccc([N+](=O)[O-])cc3)nc2C)cc1`?
**A.** GI50 [1]: 83.8 µM (inactive); GI50 [2]: 33 µM (inactive); GI50 [3]: 27.5 µM (inactive); GI50 [4]: 34.4 µM; GI50 [5]: 64.1 µM (inactive); GI50 [7]: 22.1 µM (inactive); GI50 [8]: 31.6 µM (inactive); GI50 [9]: 47 µM (inactive); GI50 [11]: > 100 µM (inactive); GI50 [12]: 39.1 µM (inactive); GI50 [13]: 34.8 µM (inactive); GI50 [14]: 59.7 µM (inactive); GI50 [15]: 40.2 µM (inactive); GI50 [16]: 17.5 µM (inactive); GI50 [17]: 18.2 µM (inactive); GI50 [18]: > 100 µM (inactive); GI50 [19]: 46.2 µM (inactive); GI50 [20]: 45.2 µM (inactive)
